Reference: US9340590B2 (priority 2011, dated 2016)
pIC50: −log10 of the molar value. Where two headings read alike, the source gives them in different places. Positions of bridges follow the written chain, without caps; N, C: chain ends. Residues, ends and D or L forms follow the SMILES beside them.

What was measured:
Assay in all cases: cell-based
[1] = target: hNav1.7 (Homo sapiens, UniProt Q15858); type: cell-based
[2] = target: hNav1.5 (Homo sapiens, UniProt Q14524)
[3] = target: hNav1.3 (Homo sapiens, UniProt Q9NY46); details: IonWorks Quattro, use-dependent protocol, hNav1.3; read-out: IWQ Use Nav1.3
[4] = IonWorks Quattro, use-dependent protocol, hNav1.7, read-out: IWQ Use Nav1.7
[5] = IonWorks Quattro, use-dependent protocol, hNav1.5, read-out: IWQ Use Nav1.5

Chain of hNav1.7 (Q15858 whole entry, looked up): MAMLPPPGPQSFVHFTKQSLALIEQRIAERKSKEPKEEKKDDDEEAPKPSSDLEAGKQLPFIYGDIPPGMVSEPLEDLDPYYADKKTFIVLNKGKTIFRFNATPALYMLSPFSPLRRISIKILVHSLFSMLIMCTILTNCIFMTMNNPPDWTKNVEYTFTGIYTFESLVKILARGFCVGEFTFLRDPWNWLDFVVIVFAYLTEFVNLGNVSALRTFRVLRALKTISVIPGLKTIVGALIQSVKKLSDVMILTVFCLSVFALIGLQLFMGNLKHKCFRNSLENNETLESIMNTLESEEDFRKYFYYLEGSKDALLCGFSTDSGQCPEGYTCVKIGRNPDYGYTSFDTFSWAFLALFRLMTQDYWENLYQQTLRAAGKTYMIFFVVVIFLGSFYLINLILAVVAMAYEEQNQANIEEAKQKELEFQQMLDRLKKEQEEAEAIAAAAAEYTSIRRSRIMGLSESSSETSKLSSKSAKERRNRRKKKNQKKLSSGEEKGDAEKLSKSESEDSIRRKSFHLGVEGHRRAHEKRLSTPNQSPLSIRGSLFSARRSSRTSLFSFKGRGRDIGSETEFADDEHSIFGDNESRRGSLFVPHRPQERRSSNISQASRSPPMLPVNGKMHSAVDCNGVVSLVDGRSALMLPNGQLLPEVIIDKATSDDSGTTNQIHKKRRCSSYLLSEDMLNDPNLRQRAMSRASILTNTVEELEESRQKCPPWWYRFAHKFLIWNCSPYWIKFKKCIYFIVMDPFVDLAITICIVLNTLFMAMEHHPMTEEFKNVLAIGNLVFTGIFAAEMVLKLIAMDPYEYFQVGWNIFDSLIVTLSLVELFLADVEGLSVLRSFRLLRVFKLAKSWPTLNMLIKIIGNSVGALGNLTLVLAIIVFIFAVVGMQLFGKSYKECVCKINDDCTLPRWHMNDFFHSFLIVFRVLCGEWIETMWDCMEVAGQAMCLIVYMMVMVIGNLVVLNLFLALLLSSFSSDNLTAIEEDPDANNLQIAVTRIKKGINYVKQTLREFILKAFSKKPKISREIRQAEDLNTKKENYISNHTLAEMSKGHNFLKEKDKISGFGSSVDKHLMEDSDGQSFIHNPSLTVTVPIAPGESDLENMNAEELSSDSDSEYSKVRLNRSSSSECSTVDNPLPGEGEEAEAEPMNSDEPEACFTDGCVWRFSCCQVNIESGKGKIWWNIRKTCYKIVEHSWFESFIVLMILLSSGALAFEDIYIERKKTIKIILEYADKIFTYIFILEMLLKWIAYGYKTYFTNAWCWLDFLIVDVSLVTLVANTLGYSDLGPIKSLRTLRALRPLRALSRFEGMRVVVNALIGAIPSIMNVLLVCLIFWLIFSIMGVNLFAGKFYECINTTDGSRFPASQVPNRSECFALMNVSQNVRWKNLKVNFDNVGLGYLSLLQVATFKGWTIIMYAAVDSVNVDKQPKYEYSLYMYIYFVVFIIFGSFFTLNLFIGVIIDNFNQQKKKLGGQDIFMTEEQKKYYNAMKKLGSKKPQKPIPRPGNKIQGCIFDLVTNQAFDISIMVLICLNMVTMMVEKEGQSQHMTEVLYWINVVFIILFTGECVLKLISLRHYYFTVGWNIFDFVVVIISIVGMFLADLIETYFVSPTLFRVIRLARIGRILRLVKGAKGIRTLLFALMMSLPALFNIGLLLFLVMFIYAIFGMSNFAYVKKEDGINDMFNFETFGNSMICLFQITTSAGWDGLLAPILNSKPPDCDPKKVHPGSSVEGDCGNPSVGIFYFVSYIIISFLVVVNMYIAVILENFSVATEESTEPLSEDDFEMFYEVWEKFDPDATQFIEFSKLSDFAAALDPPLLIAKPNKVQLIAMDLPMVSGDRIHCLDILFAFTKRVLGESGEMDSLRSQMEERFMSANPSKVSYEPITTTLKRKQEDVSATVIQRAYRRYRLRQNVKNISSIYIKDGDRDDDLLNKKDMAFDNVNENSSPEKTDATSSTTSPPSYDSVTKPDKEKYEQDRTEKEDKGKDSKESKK
Chain of hNav1.5 (Q14524 whole entry, looked up): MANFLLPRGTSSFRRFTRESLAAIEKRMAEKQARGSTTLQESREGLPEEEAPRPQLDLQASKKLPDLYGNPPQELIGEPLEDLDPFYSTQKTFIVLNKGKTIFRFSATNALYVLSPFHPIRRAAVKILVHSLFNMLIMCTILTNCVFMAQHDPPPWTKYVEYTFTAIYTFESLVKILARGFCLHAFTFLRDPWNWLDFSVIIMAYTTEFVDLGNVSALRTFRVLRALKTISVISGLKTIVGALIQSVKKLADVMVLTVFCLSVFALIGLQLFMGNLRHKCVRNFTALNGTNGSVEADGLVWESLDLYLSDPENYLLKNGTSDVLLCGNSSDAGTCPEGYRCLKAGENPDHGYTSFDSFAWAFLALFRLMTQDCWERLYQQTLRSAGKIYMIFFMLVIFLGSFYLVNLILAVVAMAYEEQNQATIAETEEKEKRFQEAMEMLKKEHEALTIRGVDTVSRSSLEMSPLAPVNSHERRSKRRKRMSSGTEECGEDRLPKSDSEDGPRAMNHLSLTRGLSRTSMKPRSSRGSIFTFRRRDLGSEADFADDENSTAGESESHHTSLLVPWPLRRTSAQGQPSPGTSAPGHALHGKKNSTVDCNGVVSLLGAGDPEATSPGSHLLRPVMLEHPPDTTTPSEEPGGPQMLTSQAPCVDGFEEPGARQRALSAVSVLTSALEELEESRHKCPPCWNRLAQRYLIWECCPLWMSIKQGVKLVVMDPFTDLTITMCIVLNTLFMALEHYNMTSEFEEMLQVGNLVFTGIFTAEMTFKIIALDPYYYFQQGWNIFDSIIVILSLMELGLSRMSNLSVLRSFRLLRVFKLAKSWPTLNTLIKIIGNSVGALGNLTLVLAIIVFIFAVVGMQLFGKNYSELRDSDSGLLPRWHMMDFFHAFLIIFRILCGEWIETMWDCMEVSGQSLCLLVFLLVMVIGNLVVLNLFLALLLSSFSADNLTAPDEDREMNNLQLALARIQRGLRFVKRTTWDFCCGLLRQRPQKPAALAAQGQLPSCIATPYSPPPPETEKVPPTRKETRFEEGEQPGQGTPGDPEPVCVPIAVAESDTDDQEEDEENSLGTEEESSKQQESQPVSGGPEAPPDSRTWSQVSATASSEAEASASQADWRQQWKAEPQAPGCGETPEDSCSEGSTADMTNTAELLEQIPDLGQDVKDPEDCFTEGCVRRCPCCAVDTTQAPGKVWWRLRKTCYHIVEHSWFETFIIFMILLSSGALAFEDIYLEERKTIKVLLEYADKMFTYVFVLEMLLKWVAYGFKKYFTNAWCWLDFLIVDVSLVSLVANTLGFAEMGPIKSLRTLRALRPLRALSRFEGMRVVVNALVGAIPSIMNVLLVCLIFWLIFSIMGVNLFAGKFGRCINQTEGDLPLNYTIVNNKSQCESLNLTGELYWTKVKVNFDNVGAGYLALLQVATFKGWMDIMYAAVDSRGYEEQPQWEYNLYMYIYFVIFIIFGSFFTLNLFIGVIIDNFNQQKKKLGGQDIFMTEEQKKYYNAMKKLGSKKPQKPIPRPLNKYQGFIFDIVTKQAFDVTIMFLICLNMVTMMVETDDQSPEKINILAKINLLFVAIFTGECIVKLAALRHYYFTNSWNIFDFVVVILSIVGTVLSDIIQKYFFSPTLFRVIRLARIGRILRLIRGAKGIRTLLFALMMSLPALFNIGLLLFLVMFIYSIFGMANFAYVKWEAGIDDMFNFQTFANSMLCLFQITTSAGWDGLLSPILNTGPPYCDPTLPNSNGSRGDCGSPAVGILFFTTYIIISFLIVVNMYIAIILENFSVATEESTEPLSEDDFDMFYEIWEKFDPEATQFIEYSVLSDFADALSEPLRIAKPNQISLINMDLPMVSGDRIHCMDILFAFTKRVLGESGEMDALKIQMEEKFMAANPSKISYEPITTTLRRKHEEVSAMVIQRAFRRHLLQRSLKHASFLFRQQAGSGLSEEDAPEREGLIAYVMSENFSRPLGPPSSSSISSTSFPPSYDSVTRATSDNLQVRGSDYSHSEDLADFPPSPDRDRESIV

CC[C@@H]1NC(=O)CNC(=O)[C@H](CC(C)C)NC(=O)[C@@H](NC(=O)[C@@H](N)CC(=O)O)CSSC[C@@H]2NC(=O)[C@@H]3CSSC[C@@H](C(=O)N[C@@H](CCCCN)C(=O)N[C@@H](Cc4ccc(O)cc4)C(=O)N[C@H](C(=O)N[C@@H](Cc4ccccc4)C(N)=O)C(C)C)NC(=O)[C@H](Cc4c[nH]c5ccccc45)NC(=O)[C@H](CCCCN)NC(=O)[C@H](Cc4cnc[nH]4)NC(=O)[C@H]([C@@H](C)O)NC(=O)[C@H](CCCNC(=N)N)NC(=O)[C@H](CO)NC(=O)[C@H](CSSC[C@H](NC(=O)[C@H](CCCCN)NC(=O)[C@H](CCCNC(=N)N)NC(=O)[C@H](CCSC)NC1=O)C(=O)N[C@@H]([C@@H](C)CC)C(=O)N1CCC[C@H]1C(=O)N[C@@H](CC(=O)O)C(=O)N[C@@H](CC(N)=O)C(=O)N[C@@H](CC(=O)O)C(=O)N[C@@H](CCCCN)C(=O)N3)NC(=O)[C@H](C(C)C)NC(=O)[C@H](CC(C)C)NC(=O)[C@H](CC(N)=O)NC(=O)[C@@H]1CCCN1C(=O)[C@H](CCCNC(=N)N)NC2=O [compound 649]
pIC50 [1, 4]: 6.16
pIC50 [2, 5]: < 5.30
pIC50 [3]: 5.89

CCC[C@@H]1NC(=O)CNC(=O)[C@H](CC(C)C)NC(=O)[C@@H](NC(=O)[C@@H](N)CC(=O)O)CSSC[C@@H]2NC(=O)[C@@H]3CSSC[C@@H](C(=O)N[C@@H](CCCCN)C(=O)N[C@@H](Cc4ccc(O)cc4)C(=O)N[C@H](C(=O)N[C@@H](Cc4ccccc4)C(N)=O)C(C)C)NC(=O)[C@H](Cc4c[nH]c5ccccc45)NC(=O)[C@H](CCCCN)NC(=O)[C@H](Cc4cnc[nH]4)NC(=O)[C@H]([C@@H](C)O)NC(=O)[C@H](CCCNC(=N)N)NC(=O)[C@H](CO)NC(=O)[C@H](CSSC[C@H](NC(=O)[C@H](CCCCN)NC(=O)[C@H](CCCNC(=N)N)NC(=O)[C@H](CCSC)NC1=O)C(=O)N[C@@H]([C@@H](C)CC)C(=O)N1CCC[C@H]1C(=O)N[C@@H](CC(=O)O)C(=O)N[C@@H](CC(N)=O)C(=O)N[C@@H](CC(=O)O)C(=O)N[C@@H](CCCCN)C(=O)N3)NC(=O)[C@H](C(C)C)NC(=O)[C@H](CC(C)C)NC(=O)[C@H](CC(N)=O)NC(=O)[C@@H]1CCCN1C(=O)[C@H](CCCNC(=N)N)NC2=O [compound 650]
pIC50 [1]: 6.70
pIC50 [2, 5]: < 5.30
pIC50 [3]: 6.24

CCCC[C@@H]1NC(=O)CNC(=O)[C@H](CC(C)C)NC(=O)[C@@H](NC(=O)[C@@H](N)CC(=O)O)CSSC[C@@H]2NC(=O)[C@@H]3CSSC[C@@H](C(=O)N[C@@H](CCCCN)C(=O)N[C@@H](Cc4ccc(O)cc4)C(=O)N[C@H](C(=O)N[C@@H](Cc4ccccc4)C(N)=O)C(C)C)NC(=O)[C@H](Cc4c[nH]c5ccccc45)NC(=O)[C@H](CCCCN)NC(=O)[C@H](Cc4c[nH]cn4)NC(=O)[C@H]([C@@H](C)O)NC(=O)[C@H](CCCNC(=N)N)NC(=O)[C@H](CO)NC(=O)[C@H](CSSC[C@H](NC(=O)[C@H](CCCCN)NC(=O)[C@H](CCCNC(=N)N)NC(=O)[C@H](CCSC)NC1=O)C(=O)N[C@@H]([C@@H](C)CC)C(=O)N1CCC[C@H]1C(=O)N[C@@H](CC(=O)O)C(=O)N[C@@H](CC(N)=O)C(=O)N[C@@H](CC(=O)O)C(=O)N[C@@H](CCCCN)C(=O)N3)NC(=O)[C@H](C(C)C)NC(=O)[C@H](CC(C)C)NC(=O)[C@H](CC(N)=O)NC(=O)[C@@H]1CCCN1C(=O)[C@H](CCCNC(=N)N)NC2=O [compound 651]
pIC50 [1, 4]: 7.11
pIC50 ([2]; IWQ Use Nav1.5): < 5.30
pIC50 [3]: 6.77

CC[C@H](C)[C@@H]1NC(=O)[C@@H]2CSSC[C@@H]3NC(=O)[C@H](C(C)C)NC(=O)[C@H](CC(C)C)NC(=O)[C@H](CC(N)=O)NC(=O)[C@@H]4CCCN4C(=O)[C@H](CCCNC(=N)N)NC(=O)[C@H](CSSC[C@H](NC(=O)[C@@H](N)CC(=O)O)C(=O)N[C@@H](CC(C)C)C(=O)NCC(=O)N(C)[C@@H](Cc4ccccc4)C(=O)N[C@@H](CCSC)C(=O)N[C@@H](CCCNC(=N)N)C(=O)N[C@@H](CCCCN)C(=O)N2)NC(=O)[C@H](CSSC[C@@H](C(=O)N[C@@H](CCCCN)C(=O)N[C@@H](Cc2ccc(O)cc2)C(=O)N[C@H](C(=O)N[C@@H](Cc2ccccc2)C(N)=O)C(C)C)NC(=O)[C@H](Cc2c[nH]c4ccccc24)NC(=O)[C@H](CCCCN)NC(=O)[C@H](Cc2c[nH]cn2)NC(=O)[C@H]([C@@H](C)O)NC(=O)[C@H](CCCNC(=N)N)NC(=O)[C@H](CO)NC3=O)NC(=O)[C@H](CCCCN)NC(=O)[C@H](CC(=O)O)NC(=O)[C@H](CC(N)=O)NC(=O)[C@H](CC(=O)O)NC(=O)[C@@H]2CCCN2C1=O [compound 657]
pIC50 [1, 4]: 6.44
pIC50 ([2]; IWQ Use Nav1.5): < 5.30
pIC50 [3]: 6.55

CC[C@H](C)[C@@H]1NC(=O)[C@@H]2CSSC[C@@H]3NC(=O)[C@H](C(C)C)NC(=O)[C@H](CC(C)C)NC(=O)[C@H](CC(N)=O)NC(=O)[C@@H]4CCCN4C(=O)[C@H](CCCNC(=N)N)NC(=O)[C@H](CSSC[C@H](NC(=O)[C@@H](N)CC(=O)O)C(=O)N[C@@H](CC(C)C)C(=O)NCC(=O)N[C@@H](C(C)(C)C)C(=O)N[C@@H](CC(C)C)C(=O)N[C@@H](CCCNC(=N)N)C(=O)N[C@@H](CCCCN)C(=O)N2)NC(=O)[C@H](CSSC[C@@H](C(=O)N[C@@H](CCCCN)C(=O)N[C@@H](Cc2ccc(O)cc2)C(=O)N[C@H](C(=O)N[C@@H](Cc2ccccc2)C(N)=O)C(C)C)NC(=O)[C@H](Cc2c[nH]c4ccccc24)NC(=O)[C@H](CCCCN)NC(=O)[C@H](Cc2c[nH]cn2)NC(=O)[C@H]([C@@H](C)O)NC(=O)[C@H](CCCNC(=N)N)NC(=O)[C@H](CO)NC3=O)NC(=O)[C@H](CCCCN)NC(=O)[C@H](CC(=O)O)NC(=O)[C@H](CC(N)=O)NC(=O)[C@H](CC(=O)O)NC(=O)[C@@H]2CCCN2C1=O [compound 659]
pIC50 [1, 4]: 6.59
pIC50 [2, 5]: < 5.30
pIC50 [3]: 6.24

CC[C@H](C)[C@@H]1NC(=O)[C@@H]2CSSC[C@@H]3NC(=O)[C@H](C(C)C)NC(=O)[C@H](CC(C)C)NC(=O)[C@H](CC(N)=O)NC(=O)[C@@H]4CCCN4C(=O)[C@H](CCCNC(=N)N)NC(=O)[C@H](CSSC[C@H](NC(=O)[C@@H](N)CC(=O)O)C(=O)N[C@@H](CC(C)C)C(=O)NCC(=O)N[C@@H](CCC(C)C)C(=O)N[C@@H](CC(C)C)C(=O)N[C@@H](CCCNC(=N)N)C(=O)N[C@@H](CCCCN)C(=O)N2)NC(=O)[C@H](CSSC[C@@H](C(=O)N[C@@H](CCCCN)C(=O)N[C@@H](Cc2ccc(O)cc2)C(=O)N[C@H](C(=O)N[C@@H](Cc2ccccc2)C(N)=O)C(C)C)NC(=O)[C@H](Cc2c[nH]c4ccccc24)NC(=O)[C@H](CCCCN)NC(=O)[C@H](Cc2c[nH]cn2)NC(=O)[C@H]([C@@H](C)O)NC(=O)[C@H](CCCNC(=N)N)NC(=O)[C@H](CO)NC3=O)NC(=O)[C@H](CCCCN)NC(=O)[C@H](CC(=O)O)NC(=O)[C@H](CC(N)=O)NC(=O)[C@H](CC(=O)O)NC(=O)[C@@H]2CCCN2C1=O [compound 660]
pIC50 [1, 4]: 7.51
pIC50 [2, 5]: < 5.30
pIC50 [3]: 7.23

CC[C@H](C)[C@@H]1NC(=O)[C@@H]2CSSC[C@@H]3NC(=O)[C@H](C(C)C)NC(=O)[C@H](CC(C)C)NC(=O)[C@H](CC(N)=O)NC(=O)[C@@H]4CCCN4C(=O)[C@H](CCCNC(=N)N)NC(=O)[C@H](CSSC[C@H](NC(=O)[C@@H](N)CC(=O)O)C(=O)N[C@@H](CC(C)C)C(=O)NCC(=O)N[C@@H](CC(C)C)C(=O)N[C@@H](CC(C)C)C(=O)N[C@@H](CCCNC(=N)N)C(=O)N[C@@H](CCCCN)C(=O)N2)NC(=O)[C@H](CSSC[C@@H](C(=O)N[C@@H](CCCCN)C(=O)N[C@@H](Cc2ccc(O)cc2)C(=O)N[C@H](C(=O)N[C@@H](Cc2ccccc2)C(N)=O)C(C)C)NC(=O)[C@H](Cc2c[nH]c4ccccc24)NC(=O)[C@H](CCCCN)NC(=O)[C@H](Cc2c[nH]cn2)NC(=O)[C@H]([C@@H](C)O)NC(=O)[C@H](CCCNC(=N)N)NC(=O)[C@H](CO)NC3=O)NC(=O)[C@H](CCCCN)NC(=O)[C@H](CC(=O)O)NC(=O)[C@H](CC(N)=O)NC(=O)[C@H](CC(=O)O)NC(=O)[C@@H]2CCCN2C1=O [compound 661] (H-DCLGLLRKCIPDNDKCCRPNLVCSRTHKWCKYVF-NH2; disulfide 2-17, 9-23, 16-30)
pIC50 [1, 4]: 7.02
pIC50 [2, 5]: < 5.30
pIC50 [3]: 6.49

CC[C@H](C)[C@@H]1NC(=O)[C@@H]2CSSC[C@@H]3NC(=O)[C@H](C(C)C)NC(=O)[C@H](CC(C)C)NC(=O)[C@H](CC(N)=O)NC(=O)[C@@H]4CCCN4C(=O)[C@H](CCCNC(=N)N)NC(=O)[C@H](CSSC[C@H](NC(=O)[C@@H](N)CC(=O)O)C(=O)N[C@@H](CC(C)C)C(=O)NCC(=O)N[C@@H](Cc4cccs4)C(=O)N[C@@H](CC(C)C)C(=O)N[C@@H](CCCNC(=N)N)C(=O)N[C@@H](CCCCN)C(=O)N2)NC(=O)[C@H](CSSC[C@@H](C(=O)N[C@@H](CCCCN)C(=O)N[C@@H](Cc2ccc(O)cc2)C(=O)N[C@H](C(=O)N[C@@H](Cc2ccccc2)C(N)=O)C(C)C)NC(=O)[C@H](Cc2c[nH]c4ccccc24)NC(=O)[C@H](CCCCN)NC(=O)[C@H](Cc2c[nH]cn2)NC(=O)[C@H]([C@@H](C)O)NC(=O)[C@H](CCCNC(=N)N)NC(=O)[C@H](CO)NC3=O)NC(=O)[C@H](CCCCN)NC(=O)[C@H](CC(=O)O)NC(=O)[C@H](CC(N)=O)NC(=O)[C@H](CC(=O)O)NC(=O)[C@@H]2CCCN2C1=O [compound 662]
pIC50 [1, 4]: 7.66
pIC50 [2, 5]: < 5.30
pIC50 [3]: 7.17
